In patent US11542255B2, “Sulfonylureas and sulfonylthioureas as NLRP3 inhibitors” (Inflazome Limited, priority 2017, dated 2023):
Where a name gives a salt, the structure may show the parent alone.

Legend:
[1] = molecular target: T1, NLRP3 (Homo sapiens, UniProt Q96P20); assay: Human whole blood IL1β release assay (LPS + nigericin, AlphaLisa IL-1β); assay type: cell-based; set-up: Human whole blood in Li-heparin tubes was obtained from healthy donors from a volunteer donor panel; from tissue; host or cells: human whole blood from healthy donors; details: NLRP3 inhibitory activity, 1 μg/ml LPS, 10 μM nigericin, IL-1β release, read-out: HWB IC50
Outline: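 Donor human whole blood (Li-heparin) was primed with 1 μg/mL LPS while incubated with compound (8-point half-log, 10 μM top, 0.1% DMSO) for 3 h at 37° C., then stimulated with 10 μM nigericin for 1 h. Supernatant IL-1β measured by AlphaLISA; IC50 from 4-parameter nonlinear fit.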

[2] = molecular target: T1, NLRP3; assay: THP-1 cells pyroptosis assay (LPS + nigericin, resazurin readout); assay type: cell-based; set-up: Seed THP-1 cells (25,000 cells/well) containing 1.0 μg/ml LPS in 40 μl of RPMI medium; host or cells: THP-1 cells; details: NLRP3 inhibitory activity, 1.0 μg/ml LPS, 5 μM nigericin
Outline: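 LPS-primed (1 μg/ml) THP-1 cells, 25,000/well in serum-free RPMI, given compound (8-point half-log, 10 μM top; 0.1% DMSO) for 3 h at 37 °C, then nigericin 5 μM for 1 h. Viability by resazurin (100 μM, 1-2 h), Ex 560/Em 590 nm; IC50 from 4-parameter variable-slope fit.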

T1 sequence (Q96P20 whole entry): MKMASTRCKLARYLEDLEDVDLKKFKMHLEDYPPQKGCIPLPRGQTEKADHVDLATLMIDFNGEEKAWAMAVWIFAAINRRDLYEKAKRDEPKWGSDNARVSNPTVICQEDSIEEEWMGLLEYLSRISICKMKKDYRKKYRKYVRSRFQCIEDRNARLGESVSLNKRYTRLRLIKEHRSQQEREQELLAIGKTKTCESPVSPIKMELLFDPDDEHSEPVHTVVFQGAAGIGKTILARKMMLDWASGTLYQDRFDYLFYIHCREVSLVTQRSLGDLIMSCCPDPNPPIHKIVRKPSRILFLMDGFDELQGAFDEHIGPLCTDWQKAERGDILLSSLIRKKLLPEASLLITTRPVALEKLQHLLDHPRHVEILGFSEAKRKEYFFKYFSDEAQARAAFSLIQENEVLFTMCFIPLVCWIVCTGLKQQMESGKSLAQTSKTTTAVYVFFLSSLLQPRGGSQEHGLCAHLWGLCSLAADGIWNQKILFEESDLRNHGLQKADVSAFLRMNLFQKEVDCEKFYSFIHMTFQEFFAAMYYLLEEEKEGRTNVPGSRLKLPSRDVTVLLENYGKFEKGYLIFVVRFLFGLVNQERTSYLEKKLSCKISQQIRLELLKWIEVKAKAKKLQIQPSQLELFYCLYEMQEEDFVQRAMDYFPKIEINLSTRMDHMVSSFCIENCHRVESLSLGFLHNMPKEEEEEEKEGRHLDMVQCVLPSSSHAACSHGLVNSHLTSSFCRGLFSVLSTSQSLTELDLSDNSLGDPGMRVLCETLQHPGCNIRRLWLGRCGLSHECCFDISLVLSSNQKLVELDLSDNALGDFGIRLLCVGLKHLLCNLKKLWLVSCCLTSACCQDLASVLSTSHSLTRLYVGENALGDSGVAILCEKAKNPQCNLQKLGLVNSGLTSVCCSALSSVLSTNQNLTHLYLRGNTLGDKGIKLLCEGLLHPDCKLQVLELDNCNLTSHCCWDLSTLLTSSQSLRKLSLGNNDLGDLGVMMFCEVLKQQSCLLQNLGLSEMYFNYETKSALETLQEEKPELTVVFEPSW

| IC50 [1] [nM] | IC50 [2] [nM] | Compound |
| --- | --- | --- |
| 800 to 1600 | 40 to 160 | CCN(CC)Cc1cc(S(=O)(=O)NC(=O)Nc2c3c(cc4c2CCC4)CCC3)nn1C [Example 82, 5-((Diethylamino)methyl)-N-((1,2,3,5,6,7-hexahydro-s-indacen-4-yl)carbamoyl)-1-methyl-1H-pyrazole-3-sulfonamide, Sodium Salt] |
| < 400 | < 40 | CCn1nc(S(=O)(=O)NC(=O)Nc2c(-c3cccnc3)cc(F)c3c2CCC3)cc1CN(C)C [Example 20, 5-((Dimethylamino)methyl)-1-ethyl-N-((7-fluoro-5-(pyridin-3-yl)-2,3-dihydro-1H-inden-4-yl)carbamoyl)-1H-pyrazole-3-sulfonamide] |
| 400 to 800 | < 40 | CN(C)C1CCCn2nc(S(=O)(=O)NC(=O)Nc3c4c(cc5c3CCC5)CCC4)cc21 (stereo not drawn) [Example 60, 4-(Dimethylamino)-N-((1,2,3,5,6,7-hexahydro-s-indacen-4-yl)carbamoyl)-4,5,6,7-tetrahydropyrazolo[1,5-a]pyridine-2-sulfonamide] |
| 1600 to 3200 | 160 to 640 | COCCN(C)Cc1cc(S(=O)(=O)NC(=O)Nc2c3c(cc4c2CCC4)CCC3)nn1C [Example 119, N-((1,2,3,5,6,7-Hexahydro-s-indacen-4-yl)carbamoyl)-5-(((2-methoxyethyl)(methyl)amino)methyl)-1-methyl-1H-pyrazole-3-sulfonamide, Sodium Salt] |
| 800 to 1600 | 40 to 160 | CN(C)C1(c2cc(S(=O)(=O)NC(=O)Nc3c4c(cc5c3CCC5)CCC4)nn2C)CC1 [Example 58, 5-(1-(Dimethylamino)cyclopropyl)-N-((1,2,3,5,6,7-hexahydro-s-indacen-4-yl)carbamoyl)-1-methyl-1H-pyrazole-3-sulfonamide, Sodium Salt] |
| 800 to 1600 | < 40 | CC(C)n1nc(S(=O)(=O)NC(=O)Nc2c3c(cc4c2CCC4)CCC3)nc1CN(C)C [Example 187] |
| 1600 to 3200 | 40 to 160 | CC(C)(C)n1nc(S(=O)(=O)NC(=O)Nc2c3c(cc4c2CCC4)CCC3)cc1CN1CCC1 [Example 38, 5-(Azetidin-1-ylmethyl)-1-(tert-butyl)-N-((1,2,3,5,6,7-hexahydro-s-indacen-4-yl)carbamoyl)-1H-pyrazole-3-sulfonamide] |
| 1600 to 3200 | 160 to 640 | CCn1nc(S(=O)(=O)NC(=O)Nc2c3c(cc4c2OCC4)CCC3)cc1CN(C)C [Example 185] |
| 800 to 1600 | < 40 | CN(C)C(c1cc(S(=O)(=O)NC(=O)Nc2c3c(cc4c2CCC4)CCC3)nn1C)C(F)(F)F (stereo not drawn) [Example 95, 5-(˜(Dimethylamino)-2,2,2-trifluoroethyl)-N-((1,2,3,5,6,7-hexahydro-s-indacen-4-yl)carbamoyl)-1-methyl-1H-pyrazole-3-sulfonamide] |
| < 400 | < 40 | CCC(c1cc(S(=O)(=O)NC(=O)Nc2c3c(cc4c2CCC4)CCC3)nn1C)N(C)C (single isomer, unassigned; enantiomer 1) [Example 71, 5-(1-(Dimethylamino)propyl)-N-((1,2,3,5,6,7-hexahydro-s-indacen-4-yl)carbamoyl)-1-methyl-1H-pyrazole-3-sulfonamide, Enantiomer 1] |
| < 400 | < 40 | CCn1nc(S(=O)(=O)NC(=O)Nc2c(-c3ccnc(OC)c3)cc(F)c3c2CCC3)cc1CN(C)C [Example 21, 5-((Dimethylamino)methyl)-1-ethyl-N-((7-fluoro-5-(2-methoxypyridin-4-yl)-2,3-dihydro-1H-inden-4-yl)carbamoyl)-1H-pyrazole-3-sulfonamide] |

Second part, the compound before the results:

| Compound | IC50 [1] [nM] | IC50 [2] [nM] |
| --- | --- | --- |
| CCC(c1cc(S(=O)(=O)NC(=O)Nc2c(C(C)C)cc(F)cc2C(C)C)nn1C(C)C)N(C)C (stereo not drawn) [Example 62, 5-(1-(Dimethylamino)propyl)-N-((4-fluoro-2,6-diisopropylphenyl)carbamoyl)-1-isopropyl-1H-pyrazole-3-sulfonamide] | 400 to 800 | 160 to 640 |
| CC(C)n1nc(S(=O)(=O)NC(=O)Nc2c3c(cc4c2CCC4)CCC3)cc1C1CCCN1C (stereo not drawn) [Example 186] | 400 to 800 | < 40 |
| COc1cc(-c2cc(F)cc(C(C)C)c2NC(=O)NS(=O)(=O)c2cc(CN(C)C)n(C(C)C)n2)ccn1 [Example 47, 5-((Dimethylamino)methyl)-N-((4-fluoro-2-isopropyl-6-(2-methoxypyridin-4-yl)phenyl)carbamoyl)-1-isopropyl-1H-pyrazole-3-sulfonamide] | < 400 | 40 to 160 |
| CN1CC(O)(c2cc(S(=O)(=O)NC(=O)Nc3c4c(cc5c3CCC5)CCC4)nn2C)C1 [Example 75, N-((1,2,3,5,6,7-Hexahydro-s-indacen-4-yl)carbamoyl)-5-(3-hydroxy-1-methylazetidin-3-yl)-1-methyl-1H-pyrazole-3-sulfonamide] | 800 to 1600 | 160 to 640 |
| CCn1nc(S(=O)(=O)NC(=O)Nc2c(-c3ccnc(C#N)c3)cc(F)cc2C(C)C)cc1CN(C)C [Example 35, N-((2-(2-Cyanopyridin-4-yl)-4-fluoro-6-isopropylphenyl)carbamoyl)-5-((dimethylamino)methyl)-1-ethyl-1H-pyrazole-3-sulfonamide] | < 400 | 40 to 160 |
| COc1cc(-c2ccc3c(c2NC(=O)NS(=O)(=O)c2cc(C4CCCN4C)n(C(C)C)n2)CCC3)ccn1 (stereo not drawn) [Example 179] | 800 to 1600 | 40 to 160 |
| CC(C)c1cc(F)cc(-c2cccnc2)c1NC(=O)NS(=O)(=O)c1cc(C(=O)N(C)C)n(C)n1 [Example 134, 3-(N-((4-Fluoro-2-isopropyl-6-(pyridin-3-yl)phenyl)carbamoyl)sulfamoyl)-N,N,1-trimethyl-1H-pyrazole-5-carboxamide, sodium Salt] | < 400 | 40 to 160 |
| COCCN(CCO)C(=O)c1cc(S(=O)(=O)NC(=O)Nc2c3c(cc4c2CCC4)CCC3)nn1C [Example 102, 3-(N-((1,2,3,5,6,7-Hexahydro-s-indacen-4-yl)carbamoyl)sulfamoyl)-N-(2-hydroxyethyl)-N-(2-methoxyethyl)-1-methyl-1H-pyrazole-5-carboxamide, Partial ammonium Salt] | 400 to 800 | 40 to 160 |
| CC(C)c1cc(F)cc(C2CCOCC2)c1NC(=O)NS(=O)(=O)c1cc(C(=O)N(C)C)n(C)n1 [Example 126, 3-(N-((4-Fluoro-2-isopropyl-6-(tetrahydro-2H-pyran-4-yl)phenyl)carbamoyl)sulfamoyl)-N,N,1-trimethyl-1H-pyrazole-5-carboxamide, Sodium Salt] | 400 to 800 | 640 to 2560 |
| CC(C)c1cc(F)cc(C(C)C)c1NC(=O)NS(=O)(=O)c1cc(CN(C)C(C)C)n(C)n1 [Example 90, N-((4-Fluoro-2,6-diisopropylphenyl)carbamoyl)-5-((isopropyl(methyl)amino)methyl)-1-methyl-1H-pyrazole-3-sulfonamide, sodium Salt] | < 400 | 160 to 640 |
| CCN(CC)Cc1cc(S(=O)(=O)NC(=O)Nc2c(C(C)C)cc(F)cc2C(C)C)nn1C [Example 83, 5-((Diethylamino)methyl)-N-((4-fluoro-2,6-diisopropylphenyl)carbamoyl)-1-methyl-1H-pyrazole-3-sulfonamide, sodium Salt] | 400 to 800 | 640 to 2560 |
| CC(C)c1cc(F)cc(-c2cccc(C#N)c2)c1NC(=O)NS(=O)(=O)c1cc(CN(C)C)n(C(C)C)n1 [Example 45, N-((3′-Cyano-5-fluoro-3-isopropyl-[1,1′-biphenyl]-2-yl)carbamoyl)-5-((dimethylamino)methyl)-1-isopropyl-1H-pyrazole-3-sulfonamide] | 800 to 1600 | 160 to 640 |
| CC(C)c1cc(F)cc(-c2cnn(C)c2)c1NC(=O)NS(=O)(=O)c1cc(C(=O)N(C)C)n(C)n1 [Example 128, 3-(N-((4-Fluoro-2-isopropyl-6-(1-methyl-1H-pyrazol-4-yl)phenyl)carbamoyl)sulfamoyl)-N,N,1-trimethyl-1H-pyrazole-5-carboxamide, Sodium Salt] | < 400 | 640 to 2560 |
| CC(C)c1cc(F)cc(-c2ccccc2)c1NC(=O)NS(=O)(=O)c1cc(CN(C)C)n(C(C)C)n1 [Example 39, 5-((Dimethylamino)methyl)-N-((5-fluoro-3-isopropyl-[1,1′-biphenyl]-2-yl)carbamoyl)-1-isopropyl-1-H-pyrazole-3-sulfonamide] | 1600 to 3200 | 640 to 2560 |
| CC(C)c1cc(F)cc(C(C)C)c1NC(=O)NS(=O)(=O)c1cc(CN2CC(F)C2)n(C)n1 [Example 79, N-((4-Fluoro-2,6-diisopropylphenyl)carbamoyl)-5-((3-fluoroazetidin-1-yl)methyl)-1-methyl-1H-pyrazole-3-sulfonamide] | 800 to 1600 | 640 to 2560 |
| COCCN(CCOC)C(=O)c1cc(S(=O)(=O)NC(=O)Nc2c(-c3ccnc(OC)c3)ccc3c2CCC3)nn1C [Example 175, N,N-Bis(2-methoxyethyl)-3-(N-((5-(2-methoxypyridin-4-yl)-2,3-dihydro-1H-inden-4-yl)carbamoyl)sulfamoyl)-1-methyl-1H-pyrazole-5-carboxamide, Sodium Salt] | < 400 | 160 to 640 |
